Consider two molecules from patent US10653693B2, “PRMT5 inhibitors and uses thereof” (Epizyme, Inc., priority 2014, dated 2020).

Molecules are shown by their SMILES.

Series [1] in a line: Body weight loss in Z-138 xenograft study. The series is classed as in vivo. The conditions noted are these: 21 days. The protocol:
Data presented in this example were determined after analysis of 21 day samples of mantle cell lymphoma tumors. Cmin PK samples were taken prior to the last dose on day 21. Tumors were excised, weighed and processed for methyl mark. Methyl mark reduction was measured in tumor samples and is shown as percent of vehicle control (POC). Both SYM11 and sDMA Elisa were used to measure methyl mark and the data shown is averaged from 10 animals. Tumor growth inhibition was determined using tumor volume reduction at day 21 expressed as a percent of POC. In vivo inhibition curves were also generated and IC50 values determined. Plasma levels from each group are averaged from 5 animals. […] The average body weight loss (BWL) in all groups was <6%. All doses tested show >50% TGI. […] The average BWL in all groups was <4%. The average BWL in all groups was <8%, except in the 100 mg/kg does group were 4 animals exceeded BWL of 15%.

Series [2] deals with cellular methylation (symmetric di-methyl arginine) in Z-138 cells. The experiment in a line: In Cell Western (ICW) methylation assay, SYM11 antibody. Format: cell-based. The note with it: Homo sapiens, 96 h, 4 days of treatment, n=1. The protocol:
Percent inhibition was determined and IC50 curves were generated using triplicate wells per concentration of compound. IC50 values were calculated using GraphPad Prism using a 4-parametric fit of the normalized dose response curves with the top fixed to 100%. Z-138 suspension cells were purchased from ATCC (American Type Culture Collection, Manassas, Va.). RPMI/Glutamax medium, penicillin-streptomycin, heat inactivated fetal bovine serum, and D-PBS were purchased from Life Technologies, Grand Island, N.Y., USA. Odyssey blocking buffer, 800CW goat anti-rabbit IgG (H+L) antibody, and Licor Odyssey infrared scanner were purchased from Licor Biosciences, Lincoln, Nebr., USA. Symmetric di-methyl arginine antibody was purchased from EMD Millipore, Billerica, Mass., USA. 16% Paraformaldehyde was purchased from Electron Microscopy Sciences, Hatfield, Pa., USA. Z-138 suspension cells were maintained in growth medium (RPMI 1640 supplemented with 10% v/v heat inactivated fetal bovine serum and 100 units/mL penicillin-streptomycin) and cultured at 37° C. under 5% CO2. […] The average of the ratio values for each control type was calculated and used to determine the percent inhibition for each test well in the plate. […] Percent inhibition was determined and IC50 curves were generated using triplicate wells per concentration of compound. […]

For series [3], the system named is SW48 colon cancer cells (SW48−/− vs SW48). Briefly: Sensitivity of cells lacking p53 versus wild-type. Format: cell-based. The note with it: based on EC50, gIC50, or gIC90. The source says: PRMT5 methylation of non-histone substrates (such as E2F1 and p53) also contributes to cancer cell growth and death. Results of Western blot and PCR experiments indicate PRMT5 inhibition leads to gene expression and splicing changes, ultimately resulting in the induction of p53 in cancer cells. A PRMT5 inhibitor of Formula C was used to generate the data in FIG. 21 and FIG. 22.

As a reminder, the IC50 is the concentration that gives 50% inhibition. Regarding `CC(=O)N1CCC(Nc2cc(C(=O)NC[C@H](O)CN3CCc4ccccc4C3)ccn2)CC1` [Formula B], the “average body weight loss (BWL) in all groups” value in series [1] was under 6%. Besides, it took 640 pM to reach half-maximal inhibition in series [2] (IC50).

As to `O=C(NC[C@H](O)CN1CCc2ccccc2C1)c1ccnc(NC2CCC2)c1` [Formula C], the “sensitivity of cells lacking p53 compared to wild-type” value in series [3] is listed as “less sensitive”.
